Assay results: ChEMBL document CHEMBL1153537, “Structure-activity relationship and molecular mechanisms of ethyl 2-amino-4-(2-ethoxy-2-oxoethyl)-6-phenyl-4h-chromene-3-carboxylate (sha 14-1) and its analogues” (J Med Chem, 2009)
Converted amounts (≈) assume the structure as drawn. The source made the active and inactive calls. The calls are words filed in the database; no cut-off is given here.

Columns and labels:
[1] = test system: Jurkat; assay: Cytotoxicity against human Jurkat cells after 48 hrs by cell titer-blue assay; assay type: functional, cell-based
[2] = test system: CCRF-CEM; assay: Cytotoxicity against human CCRF-CEM cells after 48 hrs by cell titer-blue assay; assay type: functional, cell-based
[3] = Cytotoxicity against human CCRF-CEM/C2 cells after 48 hrs by cell titer-blue assay; assay type: functional, cell-based
[4] = test system: HL-60; assay: Cytotoxicity against human HL60 cells after 48 hrs by cell titer-blue assay; assay type: functional, cell-based; details: HL-60, 48 h
[5] = Cytotoxicity against human HL60/MX2 cells after 48 hrs by cell titer-blue assay; assay type: functional, cell-based; details: HL60/MX2, 48 h
[6] = test system: NALM-6; assay: Induction of apoptosis in human NALM6 cells assessed as PARP cleavage at 3.125 to 25 uM after 24 hrs; assay type: functional, cell-based
[7] = test system: NALM-6; assay: Cytotoxicity against human NALM6 cells after 48 hrs by cell titer-blue assay; assay type: functional, cell-based
[8] = test system: REH; assay: Cytotoxicity against human REH cells after 48 hrs by cell titer-blue assay; assay type: functional, cell-based
[9] = test system: DU-145; assay: Cytotoxicity against human DU145 cells after 48 hrs by cell titer-blue assay; assay type: functional, cell-based; details: DU-145, 48 h
[10] = test system: HCT-116; assay: Cytotoxicity against human HCT116 cells after 48 hrs by cell titer-blue assay; assay type: functional, cell-based; details: HCT-116, 48 h
[11] = Cytotoxicity against mouse Hepa-1c1c7 cells after 48 hrs by cell titer-blue assay; assay type: functional, cell-based; details: Hepa-1c1c7, 48 h
[12] = test system: NCI-H460; assay: Cytotoxicity against human H460 cells after 48 hrs by cell titer-blue assay; assay type: functional, cell-based; details: NCI-H460, 48 h
[13] = test system: MCF7; assay: Cytotoxicity against human MCF7 cells after 48 hrs by cell titer-blue assay; assay type: functional, cell-based; details: MCF7, 48 h
[14] = Cytotoxicity against human SU-8686 cells after 48 hrs by cell titer-blue assay; assay type: functional, cell-based; details: SU.86.86, 48 h
[15] = test system: NALM-6; assay: Induction of apoptosis in human NALM6 cells assessed as caspase 3/7 activation at 0.4 to 100 uM after 24 hrs by fluorescence assay; assay type: functional, cell-based
[16] = biological target: Bcl-2-like protein 1 (Homo sapiens, UniProt Q07817); assay: Inhibition of recombinant His6-tagged Bcl-XL expressed in Escherichia coli BL21 (DE3) and Flu-Bak peptide interaction by fluorescence polarization assay
[17] = biological target: Induced myeloid leukemia cell differentiation protein Mcl-1 (Homo sapiens, UniProt Q07820); assay: Inhibition of recombinant His6-tagged MCL1 (171-326) expressed in Escherichia coli BL21 (DE3) and Flu-Bak peptide interaction by fluorescence polarization assay
[18] = test system: HL-60; assay: Ratio of GI50 for human HL60/MX2 cells to GI50 for human HL60 cells; assay type: functional
[19] = test system: CCRF-CEM; assay: Ratio of GI50 for human CCRF-CEM/C2 cells to GI50 for human CCRF-CEM cells; assay type: functional
[20] = test system: NALM-6; assay: Induction of apoptosis in human NALM6 cells assessed as PARP cleavage at 50 uM after 24 hrs; assay type: functional, cell-based
[21] = Homo sapiens, NALM-6, 48 h, read-out: IC50
[22] = Homo sapiens, REH, 48 h, read-out: IC50

Chain of Bcl-2-like protein 1 (Q07817 whole entry): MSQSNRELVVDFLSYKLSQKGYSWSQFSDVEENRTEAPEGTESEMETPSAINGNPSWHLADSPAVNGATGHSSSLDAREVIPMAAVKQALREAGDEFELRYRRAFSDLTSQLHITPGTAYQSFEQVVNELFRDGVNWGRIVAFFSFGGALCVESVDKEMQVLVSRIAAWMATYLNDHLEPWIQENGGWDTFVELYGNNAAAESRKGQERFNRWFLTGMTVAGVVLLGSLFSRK
Chain of Induced myeloid leukemia cell differentiation protein Mcl-1 (Q07820 whole entry): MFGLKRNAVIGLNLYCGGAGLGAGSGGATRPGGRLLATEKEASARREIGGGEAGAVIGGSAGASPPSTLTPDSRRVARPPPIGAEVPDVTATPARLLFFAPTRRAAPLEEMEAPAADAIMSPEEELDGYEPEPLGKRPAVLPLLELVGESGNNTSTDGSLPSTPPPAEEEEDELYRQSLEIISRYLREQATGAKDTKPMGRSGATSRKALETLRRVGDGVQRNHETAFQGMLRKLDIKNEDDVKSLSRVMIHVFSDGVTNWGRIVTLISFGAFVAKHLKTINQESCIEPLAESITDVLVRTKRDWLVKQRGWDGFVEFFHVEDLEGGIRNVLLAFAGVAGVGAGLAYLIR

With `CCOC(=O)CC1C(C(=O)OCC)=C(N)Oc2ccc(-c3cc(O)cc(O)c3)cc21` (centres undefined) the IC50 [1] was 18.3 µM.

Molecule `CCOC(=O)C1=C(N)Oc2ccc(-c3ccccc3)cc2C1CC(=O)N(CC)CC` (centres undefined) has an IC50 [1] of 49.6 µM.

Work on `CCOC(=O)C1=C(N)Oc2ccc(-c3ccccc3)cc2C1CC(=O)N1CCCCC1` (centres undefined) yielded an IC50 [1] of 58.5 µM.

`COc1cccc2c1C(=O)c1c(O)c3c(c(O)c1C2=O)C[C@@](O)(C(=O)CO)C[C@@H]3O[C@H]1C[C@H](N)[C@H](O)[C@H](C)O1` [DOXORUBICIN] gave an EC50 [2] of 0.465 µM, an EC50 [3] of 3.08 µM and an EC50 [4] of 1.51 µM. For the same molecule, the EC50 [5] was 8.05 µM.

With `CCOC(=O)CC1C(C(=O)OCC)=C(N)Oc2ccc(-c3cc(OC)cc(OC)c3)cc21` (centres undefined) the Activity [6] was “Dose-dependent effect”, the IC50 [1] was 1.2 µM and the IC50 [7, 21] was 4.74 µM. For the same molecule, the IC50 [8, 22] was 4.16 µM, the IC50 [9] was 11.5 µM and the IC50 [10] was 8.83 µM. The IC50 [11] was 10.9 µM, the IC50 [12] was 5.14 µM and the IC50 [13] was 15.5 µM. The IC50 [14] was 7.03 µM, the Activity [15] was “Dose-dependent effect” and the Ki [16] was 1240 µM. The Ki [17] was 42000 µM.

Molecule `CCCc1ccc2c(c1)C(CC(=O)OCC)C(C(=O)OCC)=C(N)O2` (centres undefined) has an IC50 [1] of 57.3 µM.

Molecule `CCOC(=O)CC1C(C(=O)OCC)=C(N)Oc2ccc(-c3ccc(C(C)(C)C)cc3)cc21` (centres undefined) has an IC50 [1] of 35.5 µM.

Work on `O=C1c2c(O)ccc(O)c2C(=O)c2c(NCCNCCO)ccc(NCCNCCO)c21` [MITOXANTRONE] yielded a GI50 [4] of 0.192 µg/mL (≈ 0.432 µM), a GI50 [5] of 4.42 µg/mL (≈ 9.94 µM) and a RatioGI50 [18] of 23.

Molecule `CCOC(=O)CC1C(C(=O)OCC)=C(N)Oc2cccc(-c3ccccc3)c21` (centres undefined) has an IC50 [1] of 44.3 µM.

For `CC[C@@]1(O)C(=O)OCc2c1cc1n(c2=O)Cc2cc3ccccc3nc2-1` [CAMPTOTHECIN], the GI50 [3] was 0.0432 µM and the RatioGI50 [19] was 1879.

Work on `CCOC(=O)CC1C(C(=O)OCC)=C(NC(C)=O)Oc2ccc(-c3ccccc3)cc21` (centres undefined) yielded an IC50 [1] of 67.7 µM.

For `CCOC(=O)CC1C(C#N)=C(N)Oc2ccc(-c3ccccc3)cc21` (centres undefined), the IC50 [1] was 52.5 µM.

In the case of `CCOC(=O)CC1C(C(=O)OCC)=C(N)Oc2ccccc21` (centres undefined), the IC50 [1] is reported as 91.4 µM.

Molecule `CCOC(=O)CC1C(C(=O)OCC)=C(N)Oc2ccc(Br)cc21` (centres undefined) has an IC50 [1] of 57.3 µM.

`CC[C@]1(O)C[C@H]2CN(CCc3c([nH]c4ccccc34)[C@@](C(=O)OC)(c3cc4c(cc3OC)N(C=O)[C@H]3[C@@](O)(C(=O)OC)[C@H](OC(C)=O)[C@]5(CC)C=CCN6CC[C@]43[C@@H]65)C2)C1` [VINCRISTINE] showed an EC50 [2] of 0.597 µM, an EC50 [3] of 0.367 µM and an EC50 [5] of 0.0609 µM.

`CCOC(=O)CC1C(C(=O)OCC)=C(N)Oc2cc(-c3ccccc3)ccc21` (centres undefined) gave an IC50 [1] of 51.6 µM.

`CCOC(=O)C1=C(N)Oc2ccc(-c3ccccc3)cc2C1CC(=O)N1CCNCC1` (centres undefined) gave an IC50 [1] of 53.7 µM.

Work on `CCOC(=O)C1=C(N)Oc2ccc(-c3ccccc3)cc2C1CC(=O)N1CCOCC1` (centres undefined) yielded an IC50 [1] greater than 100 µM.

Work on `CCOC(=O)CC1C(C(=O)OCC)=C(N)Oc2c(-c3ccccc3)cccc21` (centres undefined) yielded an IC50 [1] of 49.8 µM.

With `CCOC(=O)CC1C(C(=O)OCC)=C(N)Oc2ccc(-c3cccc4ccccc34)cc21` (centres undefined) the IC50 [1] was 5.83 µM.

In the case of `CCOC(=O)CC1C(C(=O)OCC)=C(N(C(C)=O)C(C)=O)Oc2ccc(-c3ccccc3)cc21` (centres undefined), the IC50 [1] is reported as 70.6 µM.

In the case of `CN(C)CC[C@H](CSc1ccccc1)Nc1ccc(S(=O)(=O)NC(=O)c2ccc(N3CCN(Cc4ccccc4-c4ccc(Cl)cc4)CC3)cc2)cc1[N+](=O)[O-]` [ABT 737], the IC50 [1] is reported as 1.38 µM, the IC50 ([7]; nalm-6) is reported as “Not Active” and the IC50 ([8]; reh) is reported as “Not Active”. It also gave an IC50 [9] of 27.6 µM, an IC50 [10] of 4.06 µM and an IC50 [11] of 8.68 µM. For the same molecule, the IC50 [12] was 8.03 µM, the IC50 [13] was 21.3 µM and the IC50 [14] was 4.24 µM.

In the case of `CCOC(=O)CC1C(C(=O)OCC)=C(N)Oc2ccc(-c3ccc4ccccc4c3)cc21` (centres undefined), the IC50 [1] is reported as 18.7 µM.

With `Nc1ccn([C@@H]2O[C@H](CO)[C@@H](O)[C@@H]2O)c(=O)n1` [CYTARABINE] the EC50 [2] was 0.00561 µM, the EC50 [3] was 0.0228 µM and the EC50 [4] was 0.657 µM. The EC50 [5] was 0.261 µM.

For `Cc1cc2c(C(C)C)c(O)c(O)c(C=O)c2c(O)c1-c1c(C)cc2c(C(C)C)c(O)c(O)c(C=O)c2c1O` [GOSSYPOL], the Ki [17] was 6.54 µM.

`CCOC(=O)CC1C(C(=O)OCC)=C(N)Oc2ccc(-c3cc(OC)c(OC)c(OC)c3)cc21` (centres undefined) showed an IC50 [1] of 13.6 µM.

In the case of `Nc1nc2[nH]cnc2c(=S)[nH]1` [THIOGUANINE], the EC50 [2] is reported as 0.87 µM, the EC50 [3] is reported as 0.942 µM and the EC50 [4] is reported as 3.9 µM. It also gave an EC50 [5] of 3.65 µM.

Work on `CC(C)OC(=O)CC1C(C(=O)OC(C)C)=C(N)Oc2ccc(-c3ccccc3)cc21` (centres undefined) yielded an IC50 [1] of 38.7 µM.

Work on `CCOC(=O)CC1C(C(=O)OCC)=C(N)Oc2ccc(-c3cc(O)cc(OC)c3)cc21` (centres undefined) yielded an IC50 [1] of 4.2 µM.

Work on `CCOC(=O)CC1C(C(=O)OCC)=C(N)Oc2ccc(-c3ccccc3)cc21` (centres undefined) yielded an IC50 [7, 21] of 44.2 µM, an IC50 [8, 22] of 20.2 µM and an IC50 [9] of 14.7 µM. The IC50 [10] was 18.5 µM, the IC50 [11] was 22.8 µM and the IC50 [12] was 15.5 µM. For the same molecule, the IC50 [13] was 18.9 µM, the IC50 [14] was 18.7 µM and the Activity [20] was “inactive”. The Activity [15] was “Dose-dependent effect” and the Ki [16] was 344 µM.
